Values of other authors in article PMC4617652 (Journal of the American Chemical Society, 2015).
Read-outs that look alike come from different tables or passages of the source.

## CCN=P(N=P(N(C)C)(N(C)C)N(C)C)(N(C)C)N(C)C [P2-Et]
MeCN ref 6c
  pKBH+ of reference base: 32.94

## C1CCC2=NCCCN2CC1 [DBU]
MeCN ref 24
  pKBH+ of reference base: 24.34

## CC(C)(C)N=P(N1CCCC1)(N1CCCC1)N1CCCC1 [P1-tBu(pyrr)3]
MeCN ref 19
  pKBH+ of reference base: 28.35
